Source: patent publication US8258128B2, “Organic compounds” (Novartis AG, priority 2006, dated 2012)
Where a name gives a salt, the structure may show the parent alone.

Legend:
[1] = tested on: rat carrageenan edema model; assay: Carrageenan edema in the rat (paw swelling); assay type: in vivo; settings: for % inhibition of paw swelling: 3 mg/kg p.o.
Procedure: Carrageenan edema in the rat: The effects of COMPOUND A are investigated in the carrageenan edema model. In this model an acute paw swelling is induced by the sub-plantar injection of carrageenan. The paw swelling has a duration of approximately 8 hours and is completely resolved at 24 hours. The model is used to assess anti-inflammatory activities of new therapeutics and is also sensitive to drugs such as COX-inhibitors like Diclofenac, which is used as a positive control compound in the model.
Method: Male OFA rats (5 animals/group) are treated orally with COMPOUND A (1, 3 and 9 mg/kg), Diclofenac (3 mg/kg) or vehicle (placebo formulation). One hour later (0 hours) the rats receive a 100 μl intra-plantar injection of a 1% w/v carrageenan solution in 0.9% saline in the hind paw and the diameter of the paw is measured by means of a micro-caliper. The paw diameter measurements are repeated 3 and 5 hours after injection of the carrageenan. Percentage inhibition of paw swelling at 3 and 5 hours is calculated by reference to vehicle treated animals (0% inhibition).
Edema is induced by a sub-plantar injection of carrageenan in the paw of the rat. Paw diameters are measured at the time of carrageenan injection (0 hours) and at 3 and 5 hours. Compounds are administered 1 hour before the carrageenan injection. COMPOUND A was dosed at 1, 3 and 9 mg/kg p.o. and Diclofenac at 3 mg/kg p.o.

[2] = tested on: collagen-induced arthritis in the rats; assay: Collagen-induced arthritis in the rats, hind paw swelling; assay type: in vivo, rat
From the text: Animal models of RA need to reflect at least some of the features found in human RA (Billingham et al., 1979). Collagen-induced arthritis (CIA) has been proposed to meet these requirements (Durie et al., 1994). Especially the similarity in the joint pathophysiology makes this animal model most attractive for the evaluation of anti-rheumatic drugs (Takeshita et al., 1997). Synovial hyperplasia, which is an integral part of the disease, parallels the migration of leukocytes into the joint space; erosion and destruction of the cartilage surface can also be found (Holmdahl et al., 1985). The rat CIA, originally described by Trentham et al. (1977), was established and extensive studies with CsA were done, including three-dimensional magnetic resonance imaging (MRI) and histology (Beckmann et al., 1995; 1998). Differences in the susceptibility of several rat strains for the development of the disease have been reported (Cremer et al., 1995; Kamada et al., 1997; Knoerzer et al., 1997).
(§1) Method: For this study, COMPOUND A and COX-inhibitor Diclofenac are dissolved in a solvent containing 5% of glucose (5 ml/kg). Compounds are given orally once a day. Female rats of the WAGxBUF/F1 crossbred strain (weight 130 g) are used. The animals are divided into several groups, one placebo group (N=8), and four treatment groups (each N=7-8). Treatment starts on peak of disease (day 0) and continues for 11 days. Swelling is assessed at regular time intervals by measuring the external thickness of the hind paws in the region of the metatarsals using a micro-caliper. Tissue samples for histological evaluation are obtained at the end of the in vivo experiment, 5 h after the last oral dose of COMPOUND A or placebo on day 11.
Results shown are means±SEM of groups of each 4-8 animals of paw diameters in mm on day-12 (before the immunization with Type II collagen in incomplete Freund's adjuvant), day 0 (start of treatment) and day 11 (end of treatment).
The data shown represent the ability of the treatment (COMPOUND A at 4 different increasing doses) to reduce the volume of the hind paw measured at day 2, day 7 and day 11.

[3] = tested on: collagen-induced arthritis in the rats; assay: Collagen-induced arthritis in the rats, histological evaluation of hind paws; assay type: in vivo, rat; settings: 1 mg/kg/day p.o., day 11
Procedure: as §1
Hind paws from control arthritic rats (vehicle-treated), taken post-mortem at the end of day 11 of the treatment, obtained relatively high histological scorings compared to histological scores of animals treated with COMPOUND A (0.3, 1, 3 and 9 mg/kg) or Diclofenac (1 mg/kg).

[4] = tested on: established Adjuvant-induced arthritis in rats; assay: Established adjuvant-induced arthritis in rats (therapeutic dosing schedule); assay type: in vivo, rat; settings: 1 mg/kg/day p.o., 7 day treatment (Table 7)
From the text: Adjuvant arthritis can be treated using two different dosing schedules; either starting at the time of immunization with adjuvant (prophylactic dosing) or from day 15 when the arthritic response is already established (therapeutic dosing). It is more difficult to inhibit adjuvant arthritis with the therapeutic dosing schedule as compared to the prophylactic schedule. Both versions of adjuvant arthritis are, however, extremely sensitive to the effects of both non-selective COX inhibitors and COX 2 selective inhibitors where 70-90% inhibition of swelling can be achieved at appropriate doses. These models may be predictive for some of the processes thought to be relevant in rheumatoid arthritis.
Method: Female Wistar rats weighing 150-170 g (housed in standard conditions, 5 animals per cage, with food and water ad libitum) are injected i.d. at the base of the tail with 0.1 ml of mineral oil containing 0.6 mg of lyophilized heat-killed Mycobacterium tuberculosis. The rats are treated orally with COMPOUND A or placebo formulation from day 15 to day 22 (therapeutic dosing schedule) or with COMPOUND A from day 0 to day 14 after immunization (prophylactic dosing schedule). At the end of the experiment, the swelling of the tarsal joints is measured by means of a micro-caliper. For the comparison study to Diclofenac both compounds are given from day 15 to day 29 with readouts at day 22 and 29. Percentage inhibition of paw swelling is calculated by reference to placebo treated arthritic animals (0% inhibition) and placebo treated normal animals (100% inhibition). Five animals are used per group. Data are analyzed using Kruskal-Wallis non-parametric ANOVA followed by Dunn's Multiple Comparison test.

SMILES | melting point [°C] | % inhibition of paw swelling ([1]; 3 hrs after carrageenan) [%] | % inhibition of paw swelling ([1]; 5 hrs after carrageenan) [%] | inhibition in the carrageenan edema model ([1]; 3 mg/kg, at both times (3 and 5 hours)) | hind paw diameter, mean ± SEM ([2]; 1 mg/kg group, Day 0 (start of treatment)) [mm] | hind paw diameter, mean ± SEM ([2]; 1 mg/kg group, Day −12 (before immunization)) [mm] | median inhibition of swelling, analysis of the AUC during day 0 to 11 ([2]; 1 mg/kg per day p.o.) [%] | hind paw diameter, mean ± SEM ([2]; 1 mg/kg per day p.o., Day 11 (end of treatment)) [mm] | Bone apposition, effect on histological score [3] [%] | Cartilage damage, effect on histological score [3] [%] | Infiltration of cells, effect on histological score [3] [%] | Loss of PG, effect on histological score [3] [%] | Swelling (mm) ± S.D. [4] [mm]
COC1=Nc2cc(Cl)ccc2/C(=C/C(=O)O)c2sccc21 [Compound 1.001, [7-Chloro-10-methoxy-3-thia-9-aza-benzo[f]azulen-(4Z)-ylidene]-acetic acid] | 186 to 188 |  |  |  |  |  |  |  |  |  |  |  | 
O=C(O)Cc1ccccc1Nc1c(Cl)cccc1Cl [Diclofenac, sodium salt of 2-[(2,6-dichlorophenyl)amino]benzeneacetic acid, reference compound] |  | 91 | 87 | 87-91% | 5.300 ± 0.265 | 3.038 ± 0.024 | 57±9.9 | 3.750 ± 0.029 | −38 | −32 | −22 | −24 | 4.27 ± 0.31
